In brackets after ≈: the same amount, converted by molar mass.

The conditions of this data set: buffer; pH 7.4; 200.0 µM.
What is called solubility (kinetic) is solubility judged after dilution from a stock solution rather than from solid. `CCc1cc2c(=O)oc(-c3ccc(F)cc3)nc2s1` yielded a kinetic solubility of less than 0.6 µg/mL.

Compound `C=CCn1c(SCC#N)nnc1-c1ccc2ncccc2c1` gave a solubility (kinetic) greater than 46.1 µg/mL. As for `CC1(C)CC(=O)C2=C(C1)OC(N)=C([N+](=O)[O-])C2c1ccc(F)cc1` (stereo unspecified), the kinetic solubility was greater than 49.8 µg/mL.

With `O=C1OC(CCl)CN1Cc1c(Cl)cccc1Cl` (stereo unspecified), the solubility (kinetic) worked out at 41.9 µg/mL (≈ 142 µM).

Consider `Cc1c(Cl)cccc1NC(=O)Nc1cc(C(C)(C)C)on1`, for which the kinetic solubility is less than 0.2 µg/mL.

`CC(=O)Nc1ccccc1OC(C)C(=O)N1CC(C)CC(C)C1` (stereo unspecified) yielded a kinetic solubility greater than 47.8 µg/mL. For the compound `COc1cc(NC(=O)Cc2ccccc2)c(C(=O)O)cc1OC`, the kinetic solubility came to 43.5 µg/mL (≈ 138 µM). For `CN(C)CCOC(=O)C(c1ccccc1)C1(O)CCCC1.Cl` (stereo unspecified), the kinetic solubility is greater than 49.2 µg/mL. The value for `COc1ccc(CNC(=O)CSC(=S)N2CCCC2)cc1` was 16.2 µg/mL (≈ 49.9 µM). For `O=C(NC(=S)NC1CCCc2ccccc21)c1ccc(F)cc1` (stereo unspecified) the value was less than 0.4 µg/mL.

With `C=CCN(c1ccccc1OC)S(=O)(=O)c1cccc(C(=O)OC2CCOC2=O)c1` (stereo unspecified), the kinetic solubility was 56.7 µg/mL (≈ 131 µM). The value for `O=C(NC(=S)NCCc1ccccc1)c1cccc(Cl)c1` was 0.6 µg/mL (≈ 1.88 µM); that for `Cc1ccc(NC(=S)NCCCN2CCOCC2)cc1C` was greater than 46.1 µg/mL. The value for `COc1ccccc1OCCNC(=O)CCNC(=O)c1ccccc1Cl` was greater than 56.5 µg/mL. For `Nc1nc(Oc2ccc(F)cc2)c(Br)c(=O)[nH]1` the value was greater than 45 µg/mL; for `COc1ccccc1Oc1ccccc1[N+](=O)[O-]`, 25.1 µg/mL (≈ 102 µM). `COc1ccc(/C=N/NC(=O)c2cccnc2)cc1CN1CCOCC1` returned a kinetic solubility greater than 53.2 µg/mL.

`c1ccc2[nH]c(-c3ccncc3)nc2c1`: the kinetic solubility is greater than 29.3 µg/mL. The value for `O=C(O)C1CC(=O)N(CCc2ccc(F)cc2)C1` (stereo unspecified) was greater than 37.7 µg/mL; that for `COc1ccc(N2C(=O)CC(SCc3ccc(Cl)cc3)C2=O)cc1` (stereo unspecified) was 0.9 µg/mL (≈ 2.49 µM); that for `CC1CCN(Cc2cc(=O)oc3ccc(C(C)C)cc23)CC1.Cl` was 4 µg/mL.

`COc1ccc(C)cc1NCc1ccc([N+](=O)[O-])cc1` returned a solubility (kinetic) of 3.1 µg/mL (≈ 11.4 µM). For `CCc1ccc(NC2=CC(=O)C(=O)c3ccccc32)cc1` the value was 2.4 µg/mL (≈ 8.65 µM); for `COc1ccc(OC)c2nc(-c3ccc4c(c3)OCO4)ccc12`, less than 0.7 µg/mL; for `Fc1cccc(NC(=S)Nc2cccnc2)c1`, greater than 37.1 µg/mL. The value for `Cc1cc(C)c2[nH]c(C(=O)Nc3ccc(F)cc3Br)cc2c1` was 4.2 µg/mL (≈ 11.6 µM).

`COc1ccc(OC)c(NC(=O)CC2(CC(=O)O)CCCC2)c1` gave a kinetic solubility greater than 48.2 µg/mL. `CCC(CC)c1nc2ccccc2c(=O)[nH]1`: the kinetic solubility was greater than 32.4 µg/mL. Compound `O=C(/C=C/c1ccco1)NC(=S)Nc1ccc(C(=O)O)cc1` yielded a solubility (kinetic) greater than 47.4 µg/mL. `CCN(CC)C(=S)Nc1ccc(OC(F)F)cc1`: the kinetic solubility was 40.3 µg/mL (≈ 147 µM).

In turn, `COc1ccc(NC(=O)CCOc2ccccc2F)cc1S(=O)(=O)N1CCCCC1` registered a solubility (kinetic) of 34.8 µg/mL (≈ 79.7 µM). As for `Cc1ccc(Nc2nc3ccccc3c(=O)[nH]2)cc1C`, the solubility (kinetic) stood at 0.4 µg/mL (≈ 1.51 µM). For `CCOC(=O)c1ccccc1CN1C(=O)c2ccccc2S1(=O)=O` the value was less than 0.7 µg/mL; for `O=C(Cc1ccccc1Cl)N1CCN(c2ccccn2)CC1`, greater than 47.4 µg/mL.

As to `COc1ccccc1CNC(=O)Cn1cc([N+](=O)[O-])ccc1=O`, the kinetic solubility is greater than 47.6 µg/mL. Regarding `Cc1ccc(C(=O)NCc2ccco2)o1`, the solubility (kinetic) is greater than 30.8 µg/mL. For `COc1cc(C(=O)O/N=C(\N)c2cccc([N+](=O)[O-])c2)cc(OC)c1OC` the value was 0.3 µg/mL (≈ 0.799 µM). For `O=C(Nc1ccc(CN2CCOCC2)cc1)c1ccco1` the value was greater than 42.9 µg/mL; for `CCC(C)[C@H](NC(=O)N1CCC(Cc2ccccc2)CC1)C(=O)O` (stereo partly specified), greater than 49.9 µg/mL; for `C/C(=N/OC(=O)c1cccc(C(F)(F)F)c1)c1cnccn1`, 3.5 µg/mL (≈ 11.3 µM). Regarding `CCCCNC(=O)N1CCN(C(c2ccccc2)c2ccccc2)CC1`, the solubility (kinetic) stood at 5 µg/mL (≈ 14.2 µM). `COc1cccc(CN2CCN(C(=O)Cc3ccccc3OC)CC2)c1`: the kinetic solubility was greater than 53.2 µg/mL.

The compound `Fc1ccc(NC(=S)Nc2cccc3ccccc23)cc1` had a kinetic solubility of 16.7 µg/mL (≈ 56.3 µM). The value for `CN(Cc1ccccc1)C(=O)c1ccc2c(c1)S(=O)(=O)N=C1CCCCCN12` was greater than 59.6 µg/mL; that for `S=c1[nH]c(-c2cccs2)cn1-c1ccccc1` was 10.5 µg/mL (≈ 40.6 µM); that for `CC(=O)Nc1ccc2c(c1)nc(C)n2-c1ccccc1` was greater than 39.8 µg/mL. `COc1ccc(NC(=O)CN(C)CC(=O)N2CC(=O)Nc3ccccc32)cc1` yielded a solubility (kinetic) greater than 57.4 µg/mL. As for `Cc1ccc(C(=O)NCCNS(=O)(=O)c2ccccc2[N+](=O)[O-])cc1`, the kinetic solubility was greater than 54.5 µg/mL. `Cc1ccc(NC(=O)COC(=O)Cn2cnc3ccccc32)c(C)c1` returned a solubility (kinetic) of 42.4 µg/mL (≈ 126 µM). For `CCc1cccc(CC)c1NC(=O)CNCc1cccs1` the value was 18.7 µg/mL (≈ 61.8 µM); for `N/C(=N\O)c1ccc(N2CCN(c3ncccc3C(F)(F)F)CC2)nc1`, 51.7 µg/mL (≈ 141 µM).

For the origin of these results see PubChem BioAssay AID1996.
